Measurements published in the kinase profiling compilation of Christmann-Franck et al. (2016).

Columns and labels:
Assay in all cases: radiometric filter-binding kinase assay, Kinase HotSpot
Settings in all cases: compound 0.5 µM; ATP 10 µM
[1] = target: JAK3 JH1 JH2 (human) (UniProt P52333)
[2] = target: TAOK2 (human) (UniProt Q9UL54)
[3] = target: SRPK1 (human) (UniProt Q96SB4)
[4] = target: CHUK (human) (UniProt O15111)
[5] = target: TXK (human) (UniProt P42681)
[6] = target: PTK6 (human) (UniProt Q13882)
[7] = target: MAP2K1 (human) (UniProt Q02750)
[8] = target: CLK1 (human) (UniProt P49759)
[9] = target: CAMK1 (human) (UniProt Q14012)
[10] = target: HIPK1 (human) (UniProt Q86Z02)
[11] = target: ERBB4 (human) (UniProt Q15303)
[12] = target: MKNK2 (human) (UniProt Q9HBH9)
[13] = target: PAK2 (human) (UniProt Q13177)
[14] = target: PRKD2 (human) (UniProt Q9BZL6)
[15] = target: NTRK2 (human) (UniProt Q16620)
[16] = target: MAPK1 (human) (UniProt P28482)
[17] = target: ALK (human) (UniProt Q9UM73)
[18] = target: MARK3 (human) (UniProt P27448)
[19] = target: MAP3K7 TAB1 (human) (UniProt O43318+Q15750)
[20] = target: TTK (human) (UniProt P33981)
[21] = target: CLK2 (human) (UniProt P49760)
[22] = target: RPS6KA4 KD2 (human) (UniProt O75676)
[23] = target: DYRK4 (human) (UniProt Q9NR20)
[24] = target: JAK2 JH1 JH2 (human) (UniProt O60674)
[25] = target: VRK1 (human) (UniProt Q99986)
[26] = target: PDPK1 (human) (UniProt O15530)
[27] = target: MAP3K11 (human) (UniProt Q16584)
[28] = target: CLK3 (human) (UniProt P49761)
[29] = target: DYRK1A (human) (UniProt Q13627)
[30] = target: LRRK2 (human) (UniProt Q5S007)
[31] = target: NEK4 (human) (UniProt P51957)
[32] = target: ERBB2 (human) (UniProt P04626)
[33] = target: PRKX (human) (UniProt P51817)
[34] = target: STK39 (human) (UniProt Q9UEW8)
[35] = target: EPHB2 (human) (UniProt P29323)
[36] = target: IRAK1 (human) (UniProt P51617)
[37] = target: PLK2 (human) (UniProt Q9NYY3)
[38] = target: CDK4 CCND1 (human) (UniProt P24385+P11802)
[39] = target: TBK1 (human) (UniProt Q9UHD2)
[40] = target: PAK3 (human) (UniProt O75914)
[41] = target: MLTK (human) (UniProt Q9NYL2)
[42] = target: CSNK1G1 (human) (UniProt Q9HCP0)

Chain of MAP3K7 TAB1 (human) (O43318 whole entry, looked up): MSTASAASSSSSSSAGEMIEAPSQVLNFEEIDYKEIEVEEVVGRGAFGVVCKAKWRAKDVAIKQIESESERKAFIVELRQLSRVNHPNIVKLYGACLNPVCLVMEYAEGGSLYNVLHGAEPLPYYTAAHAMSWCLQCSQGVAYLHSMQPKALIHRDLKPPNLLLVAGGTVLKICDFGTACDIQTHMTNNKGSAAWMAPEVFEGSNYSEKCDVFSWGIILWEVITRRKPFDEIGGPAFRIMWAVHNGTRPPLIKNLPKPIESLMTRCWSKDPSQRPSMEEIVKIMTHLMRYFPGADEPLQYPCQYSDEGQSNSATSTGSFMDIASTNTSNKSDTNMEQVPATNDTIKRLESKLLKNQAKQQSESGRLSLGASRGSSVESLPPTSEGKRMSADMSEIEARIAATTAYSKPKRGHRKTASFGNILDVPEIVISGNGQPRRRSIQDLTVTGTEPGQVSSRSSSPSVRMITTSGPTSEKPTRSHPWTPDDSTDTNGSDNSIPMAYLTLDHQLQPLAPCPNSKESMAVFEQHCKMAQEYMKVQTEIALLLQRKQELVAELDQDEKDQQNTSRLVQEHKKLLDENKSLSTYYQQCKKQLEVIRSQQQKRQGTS
Chain of MAP3K7 TAB1 (human) (Q15750 whole entry, looked up): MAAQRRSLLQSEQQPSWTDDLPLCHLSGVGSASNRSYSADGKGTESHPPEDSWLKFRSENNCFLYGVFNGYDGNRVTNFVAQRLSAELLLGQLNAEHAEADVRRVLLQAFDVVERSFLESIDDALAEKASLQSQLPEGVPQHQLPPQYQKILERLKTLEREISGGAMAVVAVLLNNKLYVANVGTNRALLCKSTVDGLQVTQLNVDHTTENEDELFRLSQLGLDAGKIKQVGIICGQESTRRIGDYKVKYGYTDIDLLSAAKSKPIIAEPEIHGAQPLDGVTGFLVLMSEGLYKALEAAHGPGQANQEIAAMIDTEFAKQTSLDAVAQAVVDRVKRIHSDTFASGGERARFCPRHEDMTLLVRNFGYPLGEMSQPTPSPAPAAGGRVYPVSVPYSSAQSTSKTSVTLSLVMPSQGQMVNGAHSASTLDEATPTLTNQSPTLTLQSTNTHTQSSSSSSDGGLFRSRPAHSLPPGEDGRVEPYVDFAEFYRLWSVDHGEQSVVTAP
Chain of LRRK2 (human) (Q5S007 whole entry, looked up): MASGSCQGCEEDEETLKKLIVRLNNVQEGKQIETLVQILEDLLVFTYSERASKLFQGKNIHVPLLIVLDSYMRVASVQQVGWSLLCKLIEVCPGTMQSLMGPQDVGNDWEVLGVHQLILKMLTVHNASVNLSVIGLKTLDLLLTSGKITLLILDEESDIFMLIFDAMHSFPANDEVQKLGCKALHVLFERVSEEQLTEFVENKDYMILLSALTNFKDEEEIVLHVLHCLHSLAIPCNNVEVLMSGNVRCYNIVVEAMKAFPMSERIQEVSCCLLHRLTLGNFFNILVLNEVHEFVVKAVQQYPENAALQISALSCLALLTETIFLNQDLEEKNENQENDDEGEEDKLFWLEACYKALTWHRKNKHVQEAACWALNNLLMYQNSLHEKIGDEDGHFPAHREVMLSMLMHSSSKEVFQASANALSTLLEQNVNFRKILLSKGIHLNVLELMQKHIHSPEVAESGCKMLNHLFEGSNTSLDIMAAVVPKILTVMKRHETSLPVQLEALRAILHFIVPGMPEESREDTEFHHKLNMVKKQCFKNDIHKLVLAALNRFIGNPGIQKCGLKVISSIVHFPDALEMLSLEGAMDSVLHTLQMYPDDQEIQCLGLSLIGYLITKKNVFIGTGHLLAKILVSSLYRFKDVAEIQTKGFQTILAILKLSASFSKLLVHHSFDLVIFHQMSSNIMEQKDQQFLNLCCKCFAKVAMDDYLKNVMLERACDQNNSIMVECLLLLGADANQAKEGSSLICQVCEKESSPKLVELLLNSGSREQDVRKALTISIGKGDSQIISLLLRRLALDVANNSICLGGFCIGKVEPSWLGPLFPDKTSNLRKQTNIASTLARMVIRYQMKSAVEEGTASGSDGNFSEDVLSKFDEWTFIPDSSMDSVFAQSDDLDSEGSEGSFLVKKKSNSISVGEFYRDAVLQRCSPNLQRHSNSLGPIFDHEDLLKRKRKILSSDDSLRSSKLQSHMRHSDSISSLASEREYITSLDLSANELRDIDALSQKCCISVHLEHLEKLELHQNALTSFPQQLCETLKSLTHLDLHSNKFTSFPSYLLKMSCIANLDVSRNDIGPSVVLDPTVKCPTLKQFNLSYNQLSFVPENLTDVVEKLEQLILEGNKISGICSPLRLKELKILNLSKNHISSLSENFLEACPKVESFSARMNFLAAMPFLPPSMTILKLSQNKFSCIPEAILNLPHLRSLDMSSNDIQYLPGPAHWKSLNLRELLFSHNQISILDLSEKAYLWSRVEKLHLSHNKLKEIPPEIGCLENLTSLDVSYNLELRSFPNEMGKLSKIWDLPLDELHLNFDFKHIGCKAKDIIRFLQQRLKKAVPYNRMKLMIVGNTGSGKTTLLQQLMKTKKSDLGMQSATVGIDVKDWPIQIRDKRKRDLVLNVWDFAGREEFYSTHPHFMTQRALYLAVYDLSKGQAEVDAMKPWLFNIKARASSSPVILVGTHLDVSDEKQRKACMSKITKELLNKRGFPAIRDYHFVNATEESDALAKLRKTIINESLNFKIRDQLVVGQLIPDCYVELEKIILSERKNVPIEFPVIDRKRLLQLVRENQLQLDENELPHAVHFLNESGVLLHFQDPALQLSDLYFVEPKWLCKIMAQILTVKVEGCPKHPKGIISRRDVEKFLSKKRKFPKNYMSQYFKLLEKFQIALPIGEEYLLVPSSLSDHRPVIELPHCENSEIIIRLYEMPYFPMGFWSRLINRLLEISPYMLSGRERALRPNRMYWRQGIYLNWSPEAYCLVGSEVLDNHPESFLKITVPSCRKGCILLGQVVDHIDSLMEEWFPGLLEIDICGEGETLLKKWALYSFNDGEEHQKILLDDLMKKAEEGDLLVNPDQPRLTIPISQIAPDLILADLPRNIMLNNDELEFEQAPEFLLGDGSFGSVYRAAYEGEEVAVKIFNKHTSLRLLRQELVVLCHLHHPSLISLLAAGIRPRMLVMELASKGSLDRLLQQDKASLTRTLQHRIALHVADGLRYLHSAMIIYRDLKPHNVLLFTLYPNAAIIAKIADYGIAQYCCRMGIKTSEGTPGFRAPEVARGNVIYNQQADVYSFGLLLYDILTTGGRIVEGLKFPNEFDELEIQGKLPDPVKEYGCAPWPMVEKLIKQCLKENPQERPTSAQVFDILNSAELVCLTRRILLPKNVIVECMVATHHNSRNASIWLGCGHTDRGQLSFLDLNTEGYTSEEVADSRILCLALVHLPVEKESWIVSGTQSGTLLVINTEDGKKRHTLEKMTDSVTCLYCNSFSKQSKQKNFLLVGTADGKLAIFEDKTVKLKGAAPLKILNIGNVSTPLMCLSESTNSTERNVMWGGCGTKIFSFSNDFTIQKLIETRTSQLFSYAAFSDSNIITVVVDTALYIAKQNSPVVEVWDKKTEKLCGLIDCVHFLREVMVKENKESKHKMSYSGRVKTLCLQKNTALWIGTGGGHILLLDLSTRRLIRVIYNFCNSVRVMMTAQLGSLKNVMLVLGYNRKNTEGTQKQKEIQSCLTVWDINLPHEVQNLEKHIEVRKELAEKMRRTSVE
Chain of CDK4 CCND1 (human) (P11802 whole entry, looked up): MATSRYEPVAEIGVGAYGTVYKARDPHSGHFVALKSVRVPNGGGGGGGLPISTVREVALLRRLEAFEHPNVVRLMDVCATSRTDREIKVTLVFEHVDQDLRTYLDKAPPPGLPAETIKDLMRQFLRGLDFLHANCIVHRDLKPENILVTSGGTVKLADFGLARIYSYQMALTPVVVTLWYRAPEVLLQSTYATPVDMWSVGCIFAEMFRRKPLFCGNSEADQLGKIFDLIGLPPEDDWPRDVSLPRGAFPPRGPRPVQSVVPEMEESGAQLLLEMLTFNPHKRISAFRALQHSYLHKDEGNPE
Chain of CDK4 CCND1 (human) (P24385 whole entry, looked up): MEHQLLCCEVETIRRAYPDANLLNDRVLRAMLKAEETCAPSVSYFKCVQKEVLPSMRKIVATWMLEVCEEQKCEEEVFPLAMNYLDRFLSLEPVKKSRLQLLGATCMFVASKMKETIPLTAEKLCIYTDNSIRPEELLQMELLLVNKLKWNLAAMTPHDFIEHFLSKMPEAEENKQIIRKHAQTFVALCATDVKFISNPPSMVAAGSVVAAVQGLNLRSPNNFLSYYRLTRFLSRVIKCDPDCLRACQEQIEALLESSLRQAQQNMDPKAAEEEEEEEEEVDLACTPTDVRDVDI
Chain of MAPK1 (human) (P28482 whole entry, looked up): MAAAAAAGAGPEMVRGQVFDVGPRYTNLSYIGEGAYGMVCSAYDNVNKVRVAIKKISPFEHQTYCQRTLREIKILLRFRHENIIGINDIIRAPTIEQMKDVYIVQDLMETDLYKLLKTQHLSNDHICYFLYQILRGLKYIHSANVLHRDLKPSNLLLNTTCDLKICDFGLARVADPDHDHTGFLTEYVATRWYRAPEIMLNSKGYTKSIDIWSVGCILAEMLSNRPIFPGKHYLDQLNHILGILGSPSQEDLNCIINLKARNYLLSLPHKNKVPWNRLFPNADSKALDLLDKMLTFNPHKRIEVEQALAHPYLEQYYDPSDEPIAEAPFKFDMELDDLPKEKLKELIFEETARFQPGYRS
Chain of VRK1 (human) (Q99986 whole entry, looked up): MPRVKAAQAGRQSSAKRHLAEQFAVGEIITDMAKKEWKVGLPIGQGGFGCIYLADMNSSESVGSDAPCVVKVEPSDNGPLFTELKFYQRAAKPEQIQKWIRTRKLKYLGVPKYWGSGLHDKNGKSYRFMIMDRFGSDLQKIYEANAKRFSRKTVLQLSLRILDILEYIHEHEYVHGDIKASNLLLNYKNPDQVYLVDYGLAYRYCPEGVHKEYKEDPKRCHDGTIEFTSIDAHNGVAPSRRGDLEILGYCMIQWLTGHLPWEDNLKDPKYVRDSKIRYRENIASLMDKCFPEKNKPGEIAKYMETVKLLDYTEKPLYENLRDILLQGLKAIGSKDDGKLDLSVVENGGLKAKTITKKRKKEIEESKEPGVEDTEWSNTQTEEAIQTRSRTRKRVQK

For CCN(CC)CCNC(=O)c1c(C)[nH]c(/C=C2\C(=O)Nc3ccc(F)cc32)c1C, the residual activity [1] was 80.7%, the residual activity [2] was 90.3% and the residual activity [3] was 97%. It also gave a residual activity [4] of 92.4%, a residual activity [5] of 92.6% and a residual activity [6] of 84.5%. It also gave a residual activity [7] of 67.8%, a residual activity [8] of 23.3% and a residual activity [9] of 75.2%. For the same molecule, the residual activity [10] was 71.3%, the residual activity [11] was 94.8% and the residual activity [12] was 99.3%. It also gave a residual activity [13] of 98.1%, a residual activity [14] of 21.1% and a residual activity [15] of 9.78%. For the same molecule, the residual activity [16] was 98.5%, the residual activity [17] was 16.6% and the residual activity [18] was 30.4%. The residual activity [19] was 18.6%, the residual activity [20] was 68% and the residual activity [21] was 13.6%. It also gave a residual activity [22] of 50.8%, a residual activity [23] of 104% and a residual activity [24] of 88.8%. It also gave a residual activity [25] of 97.3%, a residual activity [26] of 81.6% and a residual activity [27] of 68.4%. For the same molecule, the residual activity [28] was 105%, the residual activity [29] was 56.9% and the residual activity [30] was 3.34%. The residual activity [31] was 94.1%, the residual activity [32] was 105% and the residual activity [33] was 105%. It also gave a residual activity [34] of 87.4%, a residual activity [35] of 72.1% and a residual activity [36] of 31.4%. It also gave a residual activity [37] of 99.2% and a residual activity [38] of 81%.

c1ccc(-c2n[nH]c3c2oc2ccccc23)cc1 gave a residual activity [39] of 105%, a residual activity [1] of 132% and a residual activity [40] of 89.2%. For the same molecule, the residual activity [2] was 80.7%, the residual activity [3] was 113% and the residual activity [4] was 92.3%. The residual activity [5] was 81.5%, the residual activity [41] was 96.2% and the residual activity [7] was 96.4%. It also gave a residual activity [8] of 84%, a residual activity [9] of 85.2% and a residual activity [10] of 103%. It also gave a residual activity [11] of 89.7%, a residual activity [12] of 70% and a residual activity [13] of 92.3%. For the same molecule, the residual activity [14] was 86.9%, the residual activity [15] was 64% and the residual activity [16] was 118%. For the same molecule, the residual activity [17] was 95.9%, the residual activity [18] was 96.5% and the residual activity [19] was 104%. It also gave a residual activity [42] of 91.6%, a residual activity [20] of 95.7% and a residual activity [21] of 94.8%. It also gave a residual activity [22] of 90.2%, a residual activity [23] of 99.7% and a residual activity [24] of 89.8%. It also gave a residual activity [25] of 83.1%, a residual activity [26] of 94.7% and a residual activity [27] of 91.8%. For the same molecule, the residual activity [28] was 91%, the residual activity [29] was 114% and the residual activity [30] was 91.4%. The residual activity [31] was 92.9%, the residual activity [32] was 104% and the residual activity [33] was 79.8%. The residual activity [34] was 120%, the residual activity [35] was 83.1% and the residual activity [36] was 98%. It also gave a residual activity [37] of 102% and a residual activity [38] of 87.9%.

Molecule O=C1NC(=O)C(c2cn(CCCn3ccnc3)c3ccccc23)=C1Nc1ccccc1 has a residual activity [39] of 48%, a residual activity [1] of 7.97% and a residual activity [40] of 100%. For the same molecule, the residual activity [2] was 92.3%, the residual activity [3] was 99.5% and the residual activity [4] was 105%. It also gave a residual activity [5] of 95.3%, a residual activity [41] of 104% and a residual activity [7] of 90.6%. For the same molecule, the residual activity [8] was 43.3%, the residual activity [9] was 106% and the residual activity [10] was 102%. It also gave a residual activity [11] of 59.6%, a residual activity [12] of 87.2% and a residual activity [13] of 88.5%. It also gave a residual activity [14] of 94.3%, a residual activity [15] of 85.8% and a residual activity [16] of 94.8%. The residual activity [17] was 97.7%, the residual activity [18] was 92.1% and the residual activity [19] was 93.8%. The residual activity [42] was 95%, the residual activity [20] was 121% and the residual activity [21] was 14.7%. For the same molecule, the residual activity [22] was 44.4%, the residual activity [23] was 89% and the residual activity [24] was 84.3%. The residual activity [25] was 98.7%, the residual activity [26] was 80.3% and the residual activity [27] was 13.3%. The residual activity [28] was 93.9%, the residual activity [29] was 30.8% and the residual activity [30] was 43.6%. The residual activity [31] was 94.9%, the residual activity [32] was 93.6% and the residual activity [33] was 95.5%. For the same molecule, the residual activity [34] was 99.2%, the residual activity [35] was 98.4% and the residual activity [36] was 118%. For the same molecule, the residual activity [37] was 101% and the residual activity [38] was 99.1%.
